Experimental findings from patent US20240294489A1 (Captor Therapeutics S.A., priority 2020, published 2024) are described below.

Each structure is given as a SMILES string. Where two headings read alike, the source gives them in different places.

What all share (type): cell-based
For test [1], the system named is H929 cells. Nature of the test: Cell viability CTG assay, H929. On the set-up: key to Geomean absolute IC50 by molecule, 72 H: Inactive represents IC50 > 50 μM; C represents 50 μM ≥ IC50 > 5 μM. The following applies: H929, 72 h, 0.001-50 μM; for IC50: Homo sapiens, NCI-H929, read-out: Geomean absolute IC50 by molecule, 72 H. As to the method:
(§1) The effect of various compounds of the invention and various reference compounds on cell viability in various cell lines was investigated, using the Cell Viability—CTG Assay Protocol below. Hep3B, Kelly, H929, KG-1 and SNU-398 cells were maintained in respective cell medium (see Table 8, below). The cells were seeded on the 96-well or 384-white plates, and the compounds to be tested were added at the desired concentration range. Compounds are diluted in DMSO, and the DMSO concentration is kept constant at 0.25% v/v across the assay plate. After 72 h incubation (37° C., 5% CO2), CellTiter-Glo® Reagent (Promega/G7570) was added to the wells. Plates are shaken for 4 minutes and incubated for 8 minutes in the dark prior to reading luminescence (LU) by using the CLARIOstar Multimode Plate Reader. The signal is proportional to the amount of ATP, which is directly proportional to the number of cells present in the culture.
(§2) Luminescence (RLU) values were normalized to DMSO control. Dose response is assessed by non-linear regression and IC50 calculation with the average of technical duplicate of percentage inhibition. IC50 values are reported as absolute IC50 values, being the concentration of test compound at the intersection of the concentration-response curves with T/C=50%. For calculation of mean IC50 values the geometric mean is used.

Test [2] deals with Kelly cells. Nature of the test: Cell viability CTG assay, Kelly. The following applies: 72 h, 0.001-50 μM, read-out: Kelly Geomean absolute IC50 by molecule, 72 H. As to the method: as §1, §2
In test [3] the test system is KG-1 cells. The test can be described thus: Cell viability CTG assay, KG-1. The note with it: Homo sapiens; KG-1, 72 h, 0.001-50 μM; read-out: KG-1 Geomean absolute IC50 by molecule, 72 H. As to the method: as §1, §2
For test [4], the target named is T1, SALL4 (Homo sapiens, UniProt Q96SW2+Q9UJQ4).
T1 construct: SALL4 degradation in the Kelly cell line was investigated; endogenous in cells; host or cells: Kelly
The test can be described thus: SALL4 degradation assay, Kelly cell line (Western blot densitometry). The following applies: Kelly cells, 24 h; for % of SALL4 protein reduction: 100 nM, average from n ≥ 2 experiments. As to the method: (§3) Cells were seeded on 6- or 12-well plates, and the compounds to be tested were added at the desired concentration range. […] After 24 h incubation (37° C., 5% CO2), cells were harvested, washed and cell lysates were prepared using RIPA lysis buffer. The amount of protein was determined via BCA assay, and the appropriate quantity was then loaded on the precast gel for the protein separation. After primary and secondary Ab staining, the membranes were washed and signals developed. The densitometry analysis was implemented to obtain the numeric values used later in the protein level evaluation process.

In test [5] the target is T2, Ikaros (IKZF1) (Homo sapiens, UniProt Q13422+Q96SW2).
T2 construct: Ikaros degradation in the H929 cell line was investigated; endogenous in cells; host or cells: H929
Nature of the test: Ikaros degradation assay, H929 cell line. The following applies: H929 cells, 24 h; for inhibition at 10 µM / inhibition at 20 µM: NCI-H929, read-out: % of IKZF1 protein reduction. As to the method:
as §3

The target in test [6] is T3, GSPT1 (Homo sapiens, UniProt P15170+Q96SW2).
T3 construct: GSPT1 degradation in the Hep3B cell line was investigated; endogenous in cells; host or cells: Hep3B
The test can be described thus: GSPT1 degradation assay, Hep3B cell line. The following applies: HEP3B cells, 24 h, read-out: % of GSPT1 protein reduction. As to the method:
Hep3B cells were maintained in EMEM medium, supplemented with penicillin/streptomycin and 10% Fetal Bovine Serum (FBS). Cells were seeded on 6- or 12-well plates, and the compounds to be tested were added at the desired concentration range. Final DMSO concentration was 0.25%. After 24 h incubation (37° C., 5% CO2), cells were harvested, washed and cell lysates were prepared using RIPA lysis buffer. The amount of protein was determined via BCA assay, and the appropriate quantity was then loaded on the precast gel for the protein separation. After primary and secondary Ab staining, the membranes were washed and signals developed. The densitometry analysis was implemented to obtain the numeric values used later in the protein level evaluation process. Densitometry values were normalized to the loading control and calculated as [%] of the DMSO control.

Test [7] relates to Hep3B cells. The test can be described thus: Cell viability CTG assay, Hep3B. The note with it: Homo sapiens, 72 h, 0.001-50 μM, read-out: Hep3B Geomean absolute IC50 by molecule, 72 H. As to the method: as §1, §2
Test [8] deals with T4, Aiolos (IKZF3) (Homo sapiens, UniProt Q96SW2+Q9UKT9).
T4 construct: Aiolos degradation in the H929 cell line was investigated; endogenous in cells; host or cells: H929
The test can be described thus: Aiolos degradation assay, H929 cell line. The following applies: H929 cells, 20 μM, 24 h. As to the method:
as §3

T4 sequence (Q9UKT9 whole entry): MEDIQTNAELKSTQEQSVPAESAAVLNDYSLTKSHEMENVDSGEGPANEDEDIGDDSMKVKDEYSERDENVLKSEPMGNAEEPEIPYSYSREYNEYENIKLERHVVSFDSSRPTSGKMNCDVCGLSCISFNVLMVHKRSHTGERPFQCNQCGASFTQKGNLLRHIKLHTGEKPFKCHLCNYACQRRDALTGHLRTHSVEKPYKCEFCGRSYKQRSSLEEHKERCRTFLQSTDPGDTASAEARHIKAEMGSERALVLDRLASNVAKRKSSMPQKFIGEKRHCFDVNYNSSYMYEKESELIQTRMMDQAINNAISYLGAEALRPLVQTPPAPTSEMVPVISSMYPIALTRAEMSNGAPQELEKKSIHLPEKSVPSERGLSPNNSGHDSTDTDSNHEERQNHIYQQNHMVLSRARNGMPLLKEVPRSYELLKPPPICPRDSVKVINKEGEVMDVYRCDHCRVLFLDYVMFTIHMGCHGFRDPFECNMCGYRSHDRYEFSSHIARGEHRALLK
T4 sequence (Q96SW2 whole entry): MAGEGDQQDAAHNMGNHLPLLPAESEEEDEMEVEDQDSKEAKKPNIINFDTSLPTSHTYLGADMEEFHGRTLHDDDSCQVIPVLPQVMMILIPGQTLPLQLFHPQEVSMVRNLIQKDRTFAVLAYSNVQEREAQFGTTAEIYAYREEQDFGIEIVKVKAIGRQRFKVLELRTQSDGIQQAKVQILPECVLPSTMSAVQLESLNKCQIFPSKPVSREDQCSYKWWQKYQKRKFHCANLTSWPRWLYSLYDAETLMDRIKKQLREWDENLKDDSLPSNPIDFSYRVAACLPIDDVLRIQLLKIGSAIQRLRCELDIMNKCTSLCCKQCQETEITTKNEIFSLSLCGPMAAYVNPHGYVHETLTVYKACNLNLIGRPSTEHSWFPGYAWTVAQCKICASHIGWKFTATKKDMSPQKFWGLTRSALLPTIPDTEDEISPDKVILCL
T4 sequence (Q16531 whole entry partner): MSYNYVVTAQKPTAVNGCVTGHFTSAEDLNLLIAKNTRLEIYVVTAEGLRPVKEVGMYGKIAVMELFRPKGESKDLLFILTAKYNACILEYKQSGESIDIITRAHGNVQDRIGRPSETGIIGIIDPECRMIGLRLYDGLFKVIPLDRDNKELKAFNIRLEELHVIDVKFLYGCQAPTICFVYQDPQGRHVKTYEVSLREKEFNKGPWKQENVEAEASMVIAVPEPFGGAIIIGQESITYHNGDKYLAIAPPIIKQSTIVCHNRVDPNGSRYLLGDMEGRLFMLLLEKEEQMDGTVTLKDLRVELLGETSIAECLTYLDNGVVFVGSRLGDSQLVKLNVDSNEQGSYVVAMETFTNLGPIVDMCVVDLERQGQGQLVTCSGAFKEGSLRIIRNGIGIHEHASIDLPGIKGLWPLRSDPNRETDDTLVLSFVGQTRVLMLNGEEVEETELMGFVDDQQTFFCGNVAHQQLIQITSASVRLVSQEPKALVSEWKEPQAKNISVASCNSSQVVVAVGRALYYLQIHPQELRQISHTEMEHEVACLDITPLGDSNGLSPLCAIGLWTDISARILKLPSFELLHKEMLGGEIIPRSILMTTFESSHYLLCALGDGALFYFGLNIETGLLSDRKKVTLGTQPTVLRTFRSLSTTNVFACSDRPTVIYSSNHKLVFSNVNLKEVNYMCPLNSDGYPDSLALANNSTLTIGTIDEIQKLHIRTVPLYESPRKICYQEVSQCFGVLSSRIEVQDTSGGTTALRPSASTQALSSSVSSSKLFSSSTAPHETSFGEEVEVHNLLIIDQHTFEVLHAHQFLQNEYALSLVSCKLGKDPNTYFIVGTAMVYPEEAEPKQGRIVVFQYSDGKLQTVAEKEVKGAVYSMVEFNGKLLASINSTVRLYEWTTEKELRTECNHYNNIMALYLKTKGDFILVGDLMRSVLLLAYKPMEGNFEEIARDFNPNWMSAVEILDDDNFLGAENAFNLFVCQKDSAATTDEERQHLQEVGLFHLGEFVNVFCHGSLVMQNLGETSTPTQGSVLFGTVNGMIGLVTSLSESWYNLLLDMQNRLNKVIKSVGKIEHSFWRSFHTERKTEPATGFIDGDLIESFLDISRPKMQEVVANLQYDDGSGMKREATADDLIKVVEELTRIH
T2 sequence (Q13422 whole entry): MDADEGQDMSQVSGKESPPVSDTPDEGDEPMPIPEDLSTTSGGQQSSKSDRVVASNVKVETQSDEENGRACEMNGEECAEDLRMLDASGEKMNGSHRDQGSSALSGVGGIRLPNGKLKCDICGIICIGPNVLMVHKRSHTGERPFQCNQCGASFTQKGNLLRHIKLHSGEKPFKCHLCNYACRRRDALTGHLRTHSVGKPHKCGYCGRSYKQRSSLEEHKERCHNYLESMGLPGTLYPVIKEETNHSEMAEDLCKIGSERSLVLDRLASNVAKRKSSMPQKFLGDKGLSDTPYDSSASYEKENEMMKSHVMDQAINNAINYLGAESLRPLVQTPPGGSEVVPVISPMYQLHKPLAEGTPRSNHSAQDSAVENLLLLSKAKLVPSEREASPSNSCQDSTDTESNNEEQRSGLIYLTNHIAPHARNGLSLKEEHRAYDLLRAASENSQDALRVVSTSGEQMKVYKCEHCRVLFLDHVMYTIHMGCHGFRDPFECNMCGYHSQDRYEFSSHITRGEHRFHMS
T2 sequence (Q96SW2 whole entry): as the sequence (Q96SW2 whole entry) above
T2 sequence (Q16531 whole entry partner): as the sequence (Q16531 whole entry partner) above
T1 sequence (Q9UJQ4 whole entry): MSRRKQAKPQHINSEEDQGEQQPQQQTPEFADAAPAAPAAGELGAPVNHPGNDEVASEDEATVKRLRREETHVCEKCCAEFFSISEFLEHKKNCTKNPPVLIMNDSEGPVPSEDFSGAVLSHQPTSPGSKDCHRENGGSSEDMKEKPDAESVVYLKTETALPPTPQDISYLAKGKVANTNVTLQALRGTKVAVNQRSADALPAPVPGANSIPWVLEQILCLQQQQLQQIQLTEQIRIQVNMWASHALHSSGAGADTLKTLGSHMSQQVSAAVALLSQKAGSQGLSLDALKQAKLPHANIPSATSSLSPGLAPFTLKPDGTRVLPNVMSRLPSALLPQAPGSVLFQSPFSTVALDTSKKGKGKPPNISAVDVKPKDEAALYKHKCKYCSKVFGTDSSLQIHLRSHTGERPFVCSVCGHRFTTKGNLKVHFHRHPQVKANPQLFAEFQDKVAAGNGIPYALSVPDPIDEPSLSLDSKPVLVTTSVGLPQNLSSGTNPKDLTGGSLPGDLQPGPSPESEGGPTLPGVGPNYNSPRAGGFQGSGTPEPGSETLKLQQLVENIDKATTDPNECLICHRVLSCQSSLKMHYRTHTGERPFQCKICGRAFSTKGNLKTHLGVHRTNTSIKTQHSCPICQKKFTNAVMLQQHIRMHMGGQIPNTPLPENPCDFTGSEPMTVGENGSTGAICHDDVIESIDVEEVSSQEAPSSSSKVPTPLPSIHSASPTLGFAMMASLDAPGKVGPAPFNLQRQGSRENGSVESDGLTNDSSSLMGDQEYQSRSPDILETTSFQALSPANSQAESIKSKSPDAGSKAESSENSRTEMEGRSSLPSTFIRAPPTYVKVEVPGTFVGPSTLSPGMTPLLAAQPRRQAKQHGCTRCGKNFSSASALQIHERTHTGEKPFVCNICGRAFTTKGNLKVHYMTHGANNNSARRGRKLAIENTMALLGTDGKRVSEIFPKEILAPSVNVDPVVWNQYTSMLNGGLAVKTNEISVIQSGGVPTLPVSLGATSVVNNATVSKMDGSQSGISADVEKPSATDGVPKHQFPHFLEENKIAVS
T1 sequence (Q96SW2 whole entry): as the sequence (Q96SW2 whole entry) above
T1 sequence (Q16531 whole entry partner): as the sequence (Q16531 whole entry partner) above
T3 sequence (P15170 whole entry): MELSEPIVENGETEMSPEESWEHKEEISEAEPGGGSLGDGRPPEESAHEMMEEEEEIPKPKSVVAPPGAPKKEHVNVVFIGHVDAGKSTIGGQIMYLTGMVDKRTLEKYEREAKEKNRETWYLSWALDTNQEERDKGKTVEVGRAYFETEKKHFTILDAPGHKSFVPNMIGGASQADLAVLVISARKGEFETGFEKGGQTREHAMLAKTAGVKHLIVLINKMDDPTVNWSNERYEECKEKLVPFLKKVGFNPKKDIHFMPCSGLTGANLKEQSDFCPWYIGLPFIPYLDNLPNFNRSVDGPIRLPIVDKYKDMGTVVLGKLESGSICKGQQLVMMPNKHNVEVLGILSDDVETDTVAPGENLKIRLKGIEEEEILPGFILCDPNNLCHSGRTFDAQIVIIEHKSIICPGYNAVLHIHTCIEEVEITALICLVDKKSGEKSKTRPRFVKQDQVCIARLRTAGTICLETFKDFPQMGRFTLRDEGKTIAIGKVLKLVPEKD
T3 sequence (Q96SW2 whole entry): as the sequence (Q96SW2 whole entry) above
T3 sequence (Q16531 whole entry partner): as the sequence (Q16531 whole entry partner) above

Regarding `[2H]C([2H])(N)c1ccc2c(c1)CN(C1CCC(=O)NC1=O)C2=O` (centres unmarked) [Compound 2, 3-(5-(aminomethyl-d2)-1-oxoisoindolin-2-yl)piperidine-2,6-dione], the IC50 – broadly, the point on the concentration scale where inhibition reaches its midpoint – in test [1] is 5000 to 50000 nM; in test [2] it was 100 to 1000 nM; in test [3], 100 to 1000 nM; in test [7] it was at most 100 nM. Further, the “% of SALL4 protein reduction” value in test [4] was over 80%. The results for the inhibition at 10 µM in test [5] (10 uM) and in test [6] (10 uM) were 0 to 24% and 80 to 100%, respectively.

For `CC(=O)Oc1cc(C)cc(C)c1C(C)(C)CC(=O)NCc1ccc2c(c1)CN(C1CCC(=O)NC1=O)C2=O` (centres unmarked) [Compound 21, 2-[1-({[2-(2,6-dioxopiperidin-3-yl)-1-oxo-2,3-dihydro-1H-isoindol-5-yl]methyl}carbamoyl)-2-methylpropan-2-yl]-3,5-dimethylphenyl acetate], the “Geomean absolute IC50 by molecule, 72 H” value in test [1] is “Inactive”. For the same molecule, the IC50 was 1000 to 5000 nM in test [2], 1000 to 5000 nM in test [3] and at most 100 nM in test [7]. For the same molecule, the “% of SALL4 protein reduction” value in test [4] is on record as over 80%.

`CC(=O)Oc1ccc(COC(=O)NCc2ccc3c(c2)CN(C2CCC(=O)NC2=O)C3=O)cc1` (centres unmarked) [Compound 22, 4-(((((2-(2,6-dioxopiperidin-3-yl)-1-oxoisoindolin-5-yl)methyl)carbamoyl)oxy)methyl)phenyl acetate]: the IC50 in test [1] is 5000 to 50000 nM; in test [2], 100 to 1000 nM; in test [3] it was at most 100 nM; in test [7], at most 100 nM.

For the molecule `CC(OC(=O)NCc1ccc2c(c1)CN(C1CCC(=O)NC1=O)C2=O)OC(=O)C(C)C` (centres unmarked) [Compound 23, 1-((((2-(2,6-dioxopiperidin-3-yl)-1-oxoisoindolin-5-yl)methyl)carbamoyl)oxy)ethyl isobutyrate], the “Geomean absolute IC50 by molecule, 72 H” value in test [1] is reported as “Inactive”. The “% of SALL4 protein reduction” value in test [4] is reported as over 80%. Moreover, in test [5] (20 uM), the inhibition at 20 µM fell in the range of 0 to 24%. In addition, the IC50 in test [7] was at most 100 nM.

On to `Cc1oc(=O)oc1COC(=O)NCc1ccc2c(c1)CN(C1CCC(=O)NC1=O)C2=O` (centres unmarked) [Compound 24, (5-methyl-2-oxo-2H-1,3-dioxol-4-yl)methyl N-{[2-(2,6-dioxopiperidin-3-yl)-1-oxo-2,3-dihydro-1H-isoindol-5-yl]methyl}carbamate], for which, in test [1], the “Geomean absolute IC50 by molecule, 72 H” value is “Inactive”. The concentration for half-maximal inhibition (IC50) in test [2] was 1000 to 5000 nM; in test [3] it was at most 100 nM; in test [7], at most 100 nM. The inhibition at 20 µM in test [5] (20 uM) lay in the range of 0 to 24%.

As to `NCC(=O)NCc1ccc2c(c1)CN(C1CCC(=O)NC1=O)C2=O` (centres unmarked) [Compound 25, 2-amino-N-((2-(2,6-dioxopiperidin-3-yl)-1-oxoisoindolin-5-yl)methyl)acetamide], the “Geomean absolute IC50 by molecule, 72 H” value in test [1] is “Inactive”. Besides, the values for the IC50 in test [2], in test [3] and in test [7] were 1000 to 5000 nM, 1000 to 5000 nM and 100 to 1000 nM, respectively. In test [5] (20 uM), the inhibition at 20 µM is 0 to 24%.

Take `N[C@@H](Cc1cnc[nH]1)C(=O)NCc1ccc2c(c1)CN([C@H]1CCC(=O)NC1=O)C2=O` [Compound 28, (S)-2-amino-N-((2-((S)-2,6-dioxopiperidin-3-yl)-1-oxoisoindolin-5-yl)methyl)-3-(1H-imidazol-4-yl)propanamide]: the “Geomean absolute IC50 by molecule, 72 H” value in test [1] is “Inactive”. Further, the IC50 in test [2], in test [3] and in test [7] was 100 to 1000 nM throughout. Besides, the inhibition at 10 µM in test [5] (10 uM) was in the range of 0 to 24%. In addition, the inhibition at 1 µM in test [6] (1 uM) fell in the range of 80 to 100%. Also, in test [8], the “% of IKZF3 protein reduction” value was “C (C represents 0-24% of IKZF1 protein reduction)”.

`CC(C)(C)OC(=O)N[C@@H](Cc1cnc[nH]1)C(=O)NCc1ccc2c(c1)CN([C@@H]1CCC(=O)NC1=O)C2=O` [Compound 29, tert-butyl ((S)-1-(((2-((R)-2,6-dioxopiperidin-3-yl)-1-oxoisoindolin-5-yl)methyl)amino)-3-(1H-imidazol-4-yl)-1-oxopropan-2-yl)carbamate]: the inhibition at 20 µM in test [5] (20 uM) fell in the range of 0 to 24%. For the same molecule, the “% of IKZF3 protein reduction” value in test [8] was “C (C represents 0-24% of IKZF1 protein reduction)”.

On to `CC(C)C(NC(=O)OC(C)(C)C)C(=O)NCc1ccc2c(c1)CN(C1CCC(=O)NC1=O)C2=O` (centres unmarked) [Compound 31, tert-butyl (1-(((2-(2,6-dioxopiperidin-3-yl)-1-oxoisoindolin-5-yl)methyl)amino)-3-methyl-1-oxobutan-2-yl)carbamate], for which the “Geomean absolute IC50 by molecule, 72 H” value in test [1] was “Inactive”. Further, the IC50 lay within 1000 to 5000 nM in test [2], 1000 to 5000 nM in test [3] and 100 to 1000 nM in test [7]. For the same molecule, in test [5] (20 uM), the inhibition at 20 µM lay in the range of 0 to 24%.

In the case of `O=C(CCc1c[nH]c2ccccc12)NCc1ccc2c(c1)CN(C1CCC(=O)NC1=O)C2=O` (centres unmarked) [Compound 36], the IC50 in test [2], in test [3] and in test [7] was at most 100 nM in each case.

Turning to `NC(Cc1c[nH]c2ccccc12)C(=O)NCc1ccc2c(c1)CN(C1CCC(=O)NC1=O)C2=O` (centres unmarked) [Compound 37, 2-amino-N-((2-(2,6-dioxopiperidin-3-yl)-1-oxoisoindolin-5-yl)methyl)-3-(1H-indol-3-yl)propanamide], in test [1], the “Geomean absolute IC50 by molecule, 72 H” value is recorded as “Inactive”. In addition, the values for the IC50 in test [2], in test [3] and in test [7] were 100 to 1000 nM, 100 to 1000 nM and at most 100 nM, respectively. Besides, the inhibition at 20 µM in test [5] (20 uM) lay in the range of 0 to 24%.

On to `C[C@@H](O)[C@H](N)C(=O)NCc1ccc2c(c1)CN(C1CCC(=O)NC1=O)C2=O` (stereo partly drawn) [Compound 39, (2S,3R)-2-amino-N-((2-(2,6-dioxopiperidin-3-yl)-1-oxoisoindolin-5-yl)methyl)-3-hydroxybutanamide], for which, in test [1], the “Geomean absolute IC50 by molecule, 72 H” value is “Inactive”. Besides, the figures for the IC50 in test [2], in test [3] and in test [7] were 1000 to 5000 nM, 1000 to 5000 nM and 100 to 1000 nM, respectively. For the same molecule, the inhibition at 20 µM in test [5] (20 uM) lay in the range of 0 to 24%.

`O=C(CCc1ccc(Cl)cc1)NCc1ccc2c(c1)CN(C1CCC(=O)NC1=O)C2=O` (centres unmarked) [Compound 42]: the IC50 in test [2], in test [3] and in test [7] was at most 100 nM throughout.

For `CCCCCC(=O)NCc1ccc2c(c1)CN(C1CCC(=O)NC1=O)C2=O` (centres unmarked) [Compound 100, reference compound], the inhibition at 10 µM in test [5] (10 uM, numeric values) is 52%. In test [8] (numeric values), the “% of IKZF3 protein reduction” value was found to be 52%.

In the case of `Nc1cccc2c1C(=O)N(C1CCC(=O)NC1=O)C2=O` (centres unmarked) [Pomalidomide, pomalidomide, reference compound], the IC50 in test [1] (numeric values) was 61 nM. For the same molecule, the “% of IKZF1 protein reduction” value in test [5] (10 uM, numeric values) came to 86%; in test [5] (20 uM, numeric values), 91%. Further, the “% of IKZF3 protein reduction” value in test [8] (numeric values) worked out at 87%.

As for `O=C1CCC(N2C(=O)c3ccccc3C2=O)C(=O)N1` (centres unmarked) [Thalidomide, reference compound], in test [4] (0.01 μM, FIG. 1), the “degradation of SALL4” value was “lower activity”. Further, the “% of SALL4 protein reduction” value in test [4] worked out at 53%.
